# Entries after “also recorded” stand apart in the source; their conditions may differ.
# Legend:
# E. floccosum = assay: Checkerboard combination testing of compound 8 with antifungals, FIC (Example 1); type: cell-based, Epidermophyton floccosum; details: in combination with Cpd 8, one value per clinical isolate (Strain # 1-6)
# Description: (§1) This example describes the in vitro activity of combinations of compounds according to the present invention and antifungal agents against a collection of dermatophytic fungal pathogens. Antifungal susceptibility testing was adapted from the CLSI M38-A broth microdilution method for dermatophytes (NCCLS-M38-A2 2008). Combination testing was performed by checkerboard method (with compound 8 in combination with fluconazole, itraconazole or terbinafine). A total of 30 isolates of 5 different fungal species were tested in the combination test: 6 isolates each of Trichophyton tonsurans, Trichophyton rubrum, Epidermophyton floccosum, Trichophyton mentagrophytes and Microsporum canis. Clinical isolates were obtained by the Laboratory of Dr. M. Ghannoum at Case Western University.
# Synergy was assessed using the fractional inhibitory concentration (FIC), an interaction coefficient, with the following definitions:
# The fold reduction of the itraconazole minimum inhibitory concentration (MIC) was also evaluated.
# T. tonsurans = assay: MIC testing, modified CLSI M38-A2 for dermatophytes (Example 2); type: cell-based; details: n = 5 strains
# Description: (§2) MIC testing was performed according to the modification of the CLSI M38-A2 standard for dermatophytes developed at the Center (CLSI. Reference Method for Broth Dilution Antifungal Susceptibility Testing of Filamentous Fungi; Approved Standard-Second Edition. CLSI document M38-A2 [ISBN 1-56238-668-9]. CLSI, 940 West Valley Road, Suite 1400, Wayne, Pa. 19087-1898 USA, 2008; Ghannoum M A, et al. Intra- and Interlaboratory Study of a Method for Testing the Antifungal Susceptibilities of Dermatophytes. 2004 J Clin Microbiol 42:(7): 2977-2979). Compound 8 and fluconazole were tested in combination using a checkerboard microdilution method. The interaction between Compound 8 and fluconazole was determined by FIC Index, or Fractional Inhibitory Concentration Index, which assigns a numerical value to the interaction of the two antifungals.
# T. mentagrophytes = assay: as above; type: cell-based; details: n = 5 strains
# Description: as §2
# [1] = test system: panel of clinical isolates of 5 common dermatophytic fungi; assay: Checkerboard combination testing, whole panel (Example 1); type: cell-based; details: terbinafine alone; reason why synergy could not be determined
# Description: as §1
# Synergy was assessed using the fractional inhibitory concentration (FIC), an interaction coefficient, with the following definitions: […]
# T. rubrum = assay: MIC testing, modified CLSI M38-A2 for dermatophytes (Example 2); type: cell-based, Trichophyton rubrum; details: Trichophyton rubrum
Structure (SMILES),"MIC (E. floccosum; Epidermophyton floccosum, read-out: Itraconazole MIC with Cpd 8) [ng/mL]",Itraconazole MIC with Cpd 8 (E. floccosum) [ng/mL],MIC50 (T. tonsurans; Trichophyton tonsurans) [ng/mL],MIC90 (T. tonsurans; Trichophyton tonsurans) [ng/mL],MIC Range (T. tonsurans) [ng/mL],MIC50 (T. mentagrophytes; Trichophyton mentagrophytes) [ng/mL],MIC90 (T. mentagrophytes; Trichophyton mentagrophytes) [ng/mL],MIC Range (T. mentagrophytes) [ng/mL],"Potency (MIC) of terbinafine, in words [1]","MIC50 (T. rubrum; lowest concentration to inhibit 50% of the strains tested, n = 20, read-out: MIC50) [ng/mL]",MIC90 (T. rubrum; n = 20 strains) [ng/mL]
"CCC(C)n1ncn(-c2ccc(N3CCN(c4ccc(OCC5COC(Cn6cncn6)(c6ccc(Cl)cc6Cl)O5)cc4)CC3)cc2)c1=O (centres unmarked) [Itraconazole, itraconazole, reference compound]",15,8,,,,,,,,,
"CN(C/C=C/C#CC(C)(C)C)Cc1cccc2ccccc12 [Terbinafine, terbinafine]",,,2,2,1 to 16,8,16,4 to 16,extremely low MIC; also recorded: † = synergy could not be determined because of the high potency (extremely low MIC) of terbinafine,16,8000
